Results reported in patent publication US9963496B2, “Stable glucagon analogues and use for treatment of hypoglycaemia” (Novo Nordisk A/S, priority 2014, dated 2018).
*1 amine or outer side, *2 acyl side, *3 side chain or, on linkers, in order; H or OH if unused. Where a SMILES comes first, the peptide text is derived from it. Side-chain parts run from the residue outwards. [ ]: non-standard residue; d: D form. The star is where a group is joined. γGlu = O=C(O)[C@H](CCC(=O)[*:2])N[*:1]; Desaminohistidyl = O=C(CCc1c[nH]cn1)*; Aib = CC(C)(N)C(=O)O

Assay: physchem
Type: physicochemical
Details: pH 7.5
Text: Assay (III): ThT Fibrillation Assay for the Assessment of Physical Stability of Peptide Compositions The purpose of this assay is to assess the physical stability of the glucagon derivatives of the invention in aqueous solutions. Low physical stability of a peptide may lead to amyloid fibril formation, which is observed as well-ordered, thread-like macromolecular structures in the sample, which eventually may lead to gel formation. This has traditionally been measured by visual inspection of the sample. However, that kind of measurement is very cumbersome and depending on the observer. Therefore, the application of a small molecule indicator probe is much more advantageous. Thioflavin T (ThT) is such a probe and has a distinct fluorescence signature when binding to fibrils [Naiki et al. (1989) Anal. Biochem. 177, 244-249; LeVine (1999) Methods. Enzymol. 309, 274-284]. Here, as depicted in FIG. 1, F is the ThT fluorescence at the time t. The constant t0 is the time needed to reach 50% of maximum fluorescence. The two important parameters describing fibril formation are the lag-time calculated by t0−2τ and the apparent rate constant kapp 1/τ. Samples were prepared freshly before each assay. Each sample composition is described in the legends. The pH of the sample was adjusted to the desired value using appropriate amounts of concentrated NaOH and HCl. Thioflavin T was added to the samples from a stock solution in H2O to a final concentration of 1 μM. Sample aliquots of 200 μl (250 μM of the glucagon derivative/analogue in 10 mM HEPES buffer, pH 7.5) were placed in a 96 well microtiter plate (Packard OptiPlate™-96, white polystyrene). Usually, four or eight replica of each sample (corresponding to one test condition) was placed in one column of wells. The plate was sealed with Scotch Pad (Qiagen). Incubation at given temperature, shaking and measurement of the ThT fluorescence emission were done in a Fluoroskan Ascent FL fluorescence platereader (Thermo Labsystems). The plate was incubated 37° C. with orbital shaking adjusted to 960 rpm with an amplitude of 1 mm. Fluorescence measurement was done using excitation through a 444 nm filter and measurement of emission through a 485 nm filter. Each run was initiated by incubating the plate at the assay temperature for 10 min. The plate was measured every 20 minutes for a desired period of time. Between each measurement, the plate was shaken and heated as described. After completion of the ThT assay the four or eight replica of each sample was pooled and centrifuged at 20000 rpm for 30 minutes at 18° C. The supernatant was filtered through a 0.22 μm filter and an aliquot was transferred to a HPLC vial. The concentration of peptide in the initial sample and in the filtered supernatant was determined by reverse phase HPLC using an appropriate standard as reference. The percentage fraction the concentration of the filtered sample constituted of the initial sample concentration was reported as the recovery. The measurement points were saved in Microsoft Excel format for further processing and curve drawing and fitting was performed using GraphPad Prism. The background emission from ThT in the absence of fibrils was negligible. The data points were typically a mean of four or eight samples and shown with standard deviation error bars. Only data obtained in the same experiment (i.e. samples on the same plate) were presented in the same graph ensuring a relative measure of fibrillation between experiments. The data set may be fitted to Eq. (1).

recovery at 250 μM [%] | Compound
100 | CC(=O)N[C@@H](CCC(=O)N[C@@H](CCC(=O)N[C@@H](CCC(=O)N[C@@H](CCC(=O)NCCCC[C@H](NC(=O)[C@@H](NC(=O)[C@H](Cc1ccccc1)NC(=O)[C@H](CC(=O)O)NC(=O)[C@H](CCC(N)=O)NC(=O)[C@H](C)NC(=O)[C@H](CCCNC(=N)N)NC(=O)[C@H](CCCNC(=N)N)NC(=O)[C@H](CO)NC(=O)[C@H](CCC(=O)O)NC(=O)[C@H](CC(C)C)NC(=O)[C@H](Cc1ccc(O)cc1)NC(=O)[C@H](CCCCN)NC(=O)[C@H](CO)NC(=O)[C@H](CC(C)C)NC(=O)[C@H](CC(=O)O)NC(=O)[C@H](CO)NC(=O)[C@@H](NC(=O)[C@H](Cc1ccccc1)NC(=O)[C@@H](NC(=O)CNC(=O)[C@H](Cc1c[nH]cn1)NC(=O)C(C)(C)NC(=O)CCc1c[nH]cn1)[C@@H](C)O)[C@@H](C)O)C(C)C)C(=O)N[C@@H](Cc1c[nH]c2ccccc12)C(=O)N[C@@H](CC(C)C)C(=O)N[C@@H](CC(C)C)C(=O)N[C@@H](CO)C(=O)N[C@H](C(=O)O)[C@@H](C)O)C(=O)O)C(=O)O)C(=O)O)C(=O)O [Example 3, N^ϵ24-[(4S)-4-[[(4S)-4-[[(4S)-4-[[(4S)-4-acetamido-4-carboxybutanoyl]amino]-4-carboxybutanoyl]amino]-4-carboxybutanoyl]amino]-4-carboxybutanoyl]-[Imp1, Aib2, His3, Leu10, Glu15, Lys24, Leu27, Ser28]-Glucagon] (Desaminohistidyl-[Aib]HGTFTSDLSKYLESRRAQDFVK([γGlu-γGlu-γGlu-γGlu-Ac])WLLST-OH)
100 | CC(=O)N[C@@H](CCC(=O)N[C@@H](CCC(=O)N[C@@H](CCC(=O)N[C@@H](CCC(=O)NCCCC[C@H](NC(=O)[C@@H](NC(=O)[C@H](Cc1ccccc1)NC(=O)[C@H](CC(=O)O)NC(=O)[C@H](CCC(N)=O)NC(=O)[C@H](C)NC(=O)[C@H](CCCNC(=N)N)NC(=O)[C@H](CCCNC(=N)N)NC(=O)[C@H](CO)NC(=O)[C@H](CCC(=O)O)NC(=O)[C@H](CC(C)C)NC(=O)[C@H](Cc1ccc(O)cc1)NC(=O)[C@H](CCCCN)NC(=O)[C@H](CO)NC(=O)[C@H](Cc1ccc(O)cc1)NC(=O)[C@H](CC(=O)O)NC(=O)[C@H](CO)NC(=O)[C@@H](NC(=O)[C@H](Cc1ccccc1)NC(=O)[C@@H](NC(=O)CNC(=O)[C@H](Cc1c[nH]cn1)NC(=O)[C@H](CO)NC(=O)CCc1c[nH]cn1)[C@@H](C)O)[C@@H](C)O)C(C)C)C(=O)N[C@@H](Cc1c[nH]c2ccccc12)C(=O)N[C@@H](CC(C)C)C(=O)N[C@@H](CC(C)C)C(=O)N[C@@H](CO)C(=O)N[C@H](C(=O)O)[C@@H](C)O)C(=O)O)C(=O)O)C(=O)O)C(=O)O [Example 5, N^ϵ24-[(4S)-4-[[(4S)-4-[[(4S)-4-[[(4S)-4-acetamido-4-carboxybutanoyl]amino]-4-carboxybutanoyl]amino]-4-carboxybutanoyl]amino]-4-carboxybutanoyl]-[Imp1, His3, Glu15, Lys24, Leu27, Ser28]-Glucagon] (Desaminohistidyl-SHGTFTSDYSKYLESRRAQDFVK([γGlu-γGlu-γGlu-γGlu-Ac])WLLST-OH)
98 | CC(=O)N[C@@H](CCC(=O)N[C@@H](CCC(=O)N[C@@H](CCC(=O)N[C@@H](CCC(=O)NCCCC[C@H](NC(=O)[C@H](CCC(=O)O)NC(=O)[C@H](CC(C)C)NC(=O)[C@H](Cc1ccc(O)cc1)NC(=O)[C@H](CCCCN)NC(=O)[C@H](CO)NC(=O)[C@H](Cc1ccc(O)cc1)NC(=O)[C@H](CC(=O)O)NC(=O)[C@H](CO)NC(=O)[C@@H](NC(=O)[C@H](Cc1ccccc1)NC(=O)[C@@H](NC(=O)CNC(=O)[C@H](Cc1c[nH]cn1)NC(=O)[C@H](CO)NC(=O)CCc1c[nH]cn1)[C@@H](C)O)[C@@H](C)O)C(=O)N[C@@H](CCCNC(=N)N)C(=O)N[C@@H](CCCNC(=N)N)C(=O)N[C@@H](C)C(=O)N[C@@H](CCC(N)=O)C(=O)N[C@@H](CCC(=O)O)C(=O)N[C@@H](Cc1ccccc1)C(=O)N[C@H](C(=O)N[C@@H](CCC(N)=O)C(=O)N[C@@H](Cc1c[nH]c2ccccc12)C(=O)N[C@@H](CC(C)C)C(=O)N[C@@H](CC(C)C)C(=O)N[C@@H](CO)C(=O)N[C@H](C(=O)O)[C@@H](C)O)C(C)C)C(=O)O)C(=O)O)C(=O)O)C(=O)O [Example 11, N^ϵ16-[(4S)-4-[[(4S)-4-[[(4S)-4-[[(4S)-4-acetamido-4-carboxybutanoyl]amino]-4-carboxybutanoyl]amino]-4-carboxybutanoyl]amino]-4-carboxybutanoyl]-[Imp1, His3, Glu15, Lys16, Glu21, Leu27, Ser28]-Glucagon] (Desaminohistidyl-SHGTFTSDYSKYLEK([γGlu-γGlu-γGlu-γGlu-Ac])RRAQEFVQWLLST-OH)
88 | CC(=O)N[C@@H](CCC(=O)N[C@@H](CCC(=O)N[C@@H](CCC(=O)N[C@@H](CCC(=O)NCCCC[C@H](NC(=O)[C@H](C)NC(=O)[C@H](CCCNC(=N)N)NC(=O)[C@H](CCCNC(=N)N)NC(=O)[C@H](CO)NC(=O)[C@H](CCC(=O)O)NC(=O)[C@H](CC(C)C)NC(=O)[C@H](Cc1ccc(O)cc1)NC(=O)[C@H](CCCCN)NC(=O)[C@H](CO)NC(=O)[C@H](Cc1ccc(O)cc1)NC(=O)[C@H](CC(=O)O)NC(=O)[C@H](CO)NC(=O)[C@@H](NC(=O)[C@H](Cc1ccccc1)NC(=O)[C@@H](NC(=O)CNC(=O)[C@H](Cc1c[nH]cn1)NC(=O)[C@H](CO)NC(=O)CCc1c[nH]cn1)[C@@H](C)O)[C@@H](C)O)C(=O)N[C@@H](CCC(=O)O)C(=O)N[C@@H](Cc1ccccc1)C(=O)N[C@H](C(=O)N[C@@H](CCC(N)=O)C(=O)N[C@@H](Cc1c[nH]c2ccccc12)C(=O)N[C@@H](CC(C)C)C(=O)N[C@@H](CC(C)C)C(=O)N[C@@H](CO)C(=O)N[C@H](C(=O)O)[C@@H](C)O)C(C)C)C(=O)O)C(=O)O)C(=O)O)C(=O)O [Example 12, N^ϵ20-[(4S)-4-[[(4S)-4-[[(4S)-4-[[(4S)-4-acetamido-4-carboxybutanoyl]amino]-4-carboxybutanoyl]amino]-4-carboxybutanoyl]amino]-4-carboxybutanoyl]-[Imp1, His3, Glu15, Lys20, Glu21, Leu27, Ser28]-Glucagon] (Desaminohistidyl-SHGTFTSDYSKYLESRRAK([γGlu-γGlu-γGlu-γGlu-Ac])EFVQWLLST-OH)
100 | CC(=O)N[C@@H](CCC(=O)N[C@@H](CCC(=O)N[C@@H](CCC(=O)N[C@@H](CCC(=O)NCC(=O)NCCCC[C@H](NC(=O)[C@@H](NC(=O)[C@H](Cc1ccccc1)NC(=O)[C@H](CCC(=O)O)NC(=O)[C@H](CCC(N)=O)NC(=O)[C@H](C)NC(=O)[C@H](CCCNC(=N)N)NC(=O)[C@H](CCCNC(=N)N)NC(=O)[C@H](CO)NC(=O)[C@H](CCC(=O)O)NC(=O)[C@H](CC(C)C)NC(=O)[C@H](Cc1ccc(O)cc1)NC(=O)[C@H](CCCCN)NC(=O)[C@H](CO)NC(=O)[C@H](Cc1ccc(O)cc1)NC(=O)[C@H](CC(=O)O)NC(=O)[C@H](CO)NC(=O)[C@@H](NC(=O)[C@H](Cc1ccccc1)NC(=O)[C@@H](NC(=O)CNC(=O)[C@H](Cc1c[nH]cn1)NC(=O)[C@H](CO)NC(=O)CCc1c[nH]cn1)[C@@H](C)O)[C@@H](C)O)C(C)C)C(=O)N[C@@H](Cc1c[nH]c2ccccc12)C(=O)N[C@@H](CC(C)C)C(=O)N[C@@H](CC(C)C)C(=O)N[C@@H](CO)C(=O)N[C@H](C(=O)O)[C@@H](C)O)C(=O)O)C(=O)O)C(=O)O)C(=O)O [Example 17, N^ϵ24-[2-[[(4S)-4-[[(4S)-4-[[(4S)-4-[[(4S)-4-acetamido-4-carboxybutanoyl]amino]-4-carboxybutanoyl]amino]-4-carboxybutanoyl]amino]-4-carboxybutanoyl]amino]acetyl]-[Imp1, His3, Glu15, Glu21, Lys24, Leu27, Ser28]-Glucagon] (Desaminohistidyl-SHGTFTSDYSKYLESRRAQEFVK([Gly-γGlu-γGlu-γGlu-γGlu-Ac])WLLST-OH)
